Reference: ChEMBL document CHEMBL5385851, “Natural quinazolinones: From a treasure house to promising anticancer leads” (Eur J Med Chem, 2023)
pEC50, pIC50: −log10 of the molar value. Values after ≈ are worked out from the molar mass of the structure shown.

Experiments:
[1] = test system: NCI-N87; experiment: Cytotoxicity against human NCI-N87 cells; assay type: functional, cell-based
[2] = test system: PC-3; experiment: Cytotoxicity against human PC-3 cells assessed as inhibition of cell growth; assay type: functional, cell-based
[3] = test system: DU-145; experiment: Growth inhibition of human DU-145 cells incubated for 24 hrs by sulforhodamine B assay; assay type: functional
[4] = test system: HL-60; experiment: Cytotoxicity against human HL-60 cells assessed as reduction in cell growth incubated for 48 hrs by MTT assay; assay type: functional, cell-based; settings: HL-60, 48 h
[5] = test system: NCI-N87; experiment: Cytotoxicity against human NCI-N87 cells measured after 72 hrs by Celltiter-Glo assay; assay type: functional, cell-based; settings: NCI-N87, 72 h
[6] = test system: P388; experiment: Antiproliferative activity against mouse P388 cells assessed as reduction in cell proliferation incubated for 48 hrs by MTT assay; assay type: functional, cell-based; settings: P388, 48 h
[7] = test system: HT-29; experiment: Antiproliferative activity against human HT-29 cells assessed as reduction in cell viability after 72 hrs by MTT assay; assay type: functional, cell-based; settings: HT-29, 72 h
[8] = test system: P388; experiment: Cytotoxicity against mouse P388 cells assessed as reduction in cell viability by SRB assay; assay type: functional; settings: read-out: ED50 (the source's name)
[9] = test system: HT-29; experiment: Cytotoxicity against human HT-29 cells assessed as cell growth inhibition by MTT assay; assay type: functional, cell-based
[10] = biological target: Indoleamine 2,3-dioxygenase 1 (Homo sapiens, UniProt P14902); experiment: Inhibition of IDO1 in HEK293 cells; assay type: cell-based
Indoleamine 2,3-dioxygenase 1, sequence (P14902 whole entry): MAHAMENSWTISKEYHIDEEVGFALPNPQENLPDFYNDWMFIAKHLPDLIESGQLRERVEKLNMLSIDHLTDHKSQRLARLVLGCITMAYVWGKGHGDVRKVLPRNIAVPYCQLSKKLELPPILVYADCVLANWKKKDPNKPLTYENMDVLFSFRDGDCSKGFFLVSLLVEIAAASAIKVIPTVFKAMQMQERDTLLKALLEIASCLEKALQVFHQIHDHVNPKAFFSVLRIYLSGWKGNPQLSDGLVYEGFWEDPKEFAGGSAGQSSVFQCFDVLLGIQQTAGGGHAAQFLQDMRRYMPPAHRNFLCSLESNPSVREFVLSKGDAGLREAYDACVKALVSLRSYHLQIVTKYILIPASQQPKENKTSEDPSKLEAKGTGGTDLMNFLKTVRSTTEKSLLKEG

[11] = test system: HL-60; experiment: Cytotoxicity against human HL-60 cells assessed as reduction in cell viability; assay type: functional, cell-based
[12] = test system: NCI-H1975; experiment: Antiproliferative activity against human NCI-H1975 cells assessed as cell growth inhibition incubated for 72 hrs by MTT assay; assay type: functional, cell-based; settings: NCI-H1975, 72 h
[13] = test system: NCI-H1650; experiment: Antiproliferative activity against human NCI-H1650 cells assessed as cell growth inhibition incubated for 72 hrs by MTT assay; assay type: functional, cell-based; settings: NCI-H1650, 72 h
[14] = test system: MCF7; experiment: Antiproliferative activity against human MCF7 cells assessed as cell growth inhibition incubated for 72 hrs by MTT assay; assay type: functional, cell-based; settings: MCF7, 72 h
[15] = test system: NCI/ADR-RES; experiment: Antiproliferative activity against human MCF7ADR cells assessed as cell growth inhibition incubated for 72 hrs by MTT assay; assay type: functional, cell-based
[16] = test system: OVCAR-4; experiment: Cytotoxicity against human OVCAR-4 cells assessed as cell growth inhibition; assay type: functional
[17] = test system: HeLa; experiment: Cytotoxicity against human HeLa cells assessed as reduction in cell growth incubated for 48 hrs by MTT assay; assay type: functional, cell-based
[18] = test system: MCF7; experiment: Cytotoxicity against human MCF7 cells assessed as reduction in cell growth incubated for 5 days by MTT assay; assay type: functional, cell-based; settings: MCF7, 120 h
[19] = test system: HCT-116; experiment: Antiproliferative activity against human HCT-116 cells assessed as reduction in cell proliferation; assay type: functional, cell-based
[20] = test system: NCI/ADR-RES; experiment: Antiproliferative activity against human NCI-ADR-RES cells assessed as inhibition of cell growth measured after 48 hrs by SRB assay; assay type: functional, cell-based
[21] = test system: HL-60; experiment: Antiproliferative activity against human HL-60 cells assessed as cell growth inhibition incubated for 72 hrs by MTT assay; assay type: functional, cell-based; settings: HL-60, 72 h
[22] = test system: U-251; experiment: Growth inhibition of human U-251 cells by sulforhodamine B assay; assay type: functional; settings: time 72 hrs
[23] = test system: K562; experiment: Growth inhibition of human K562 cells incubated for 48 hrs by sulforhodamine B assay; assay type: functional
[24] = test system: HL-60; experiment: Growth inhibition of human HL-60 cells incubated for 4 days by WST assay; assay type: functional; settings: HL-60, 96 h, time 4 day
[25] = test system: NCI-N87; experiment: Growth inhibition of human NCI-N87 cells assessed as reduction in cell viability measured after 72 hrs by MTT assay; assay type: functional
[26] = test system: HUVEC; experiment: Cytotoxicity against HUVEC cells assessed as reduction in cell viability incubated for 48 hrs by MTT assay; assay type: functional, cell-based; settings: Homo sapiens
[27] = test system: P388; experiment: Cytotoxicity against mouse P388 cells assessed as inhibition of cell growth incubated for 48 hrs by SRB assay; assay type: functional, cell-based; settings: P388, 48 h
[28] = test system: HCT-116; experiment: Anticancer activity against human HCT-116 cells assessed as cell growth inhibition; assay type: functional
[29] = test system: MCF7; experiment: Antiproliferative activity against human MCF7 cells assessed as cell growth inhibition incubated for 48 hrs by MTT assay; assay type: functional, cell-based; settings: MCF7, 48 h
[30] = test system: MCF7; experiment: Growth inhibition of human MCF7 cells incubated for 48 hrs by SRB assay; assay type: functional
[31] = test system: HT-29; experiment: Cytotoxicity against human HT-29 cells assessed as reduction in cell viability by SRB assay; assay type: functional, cell-based
[32] = test system: HT-29; experiment: Growth inhibition of human HT-29 cells by SRB assay; assay type: functional
[33] = test system: MDA-MB-231; experiment: Antiproliferative activity against human MDA-MB-231 cells assessed as reduction in cell viability after 48 hrs by SRB assay; assay type: functional, cell-based; settings: MDA-MB-231, 48 h
[34] = test system: DU-145; experiment: Growth inhibition of human DU-145 cells incubated for 48 hrs by sulforhodamine B assay; assay type: functional
[35] = test system: SF-295; experiment: Growth inhibition against human SF-295 cells incubated for 48 hrs by sulforhodamine B assay; assay type: functional
[36] = test system: SMMC-7721; experiment: Anticancer activity against human SMMC-7721 cells assessed as cell growth inhibition incubated for 48 hrs by CCK8 assay; assay type: functional, cell-based; settings: SMMC-7721, 48 h
[37] = test system: NCI/ADR-RES; experiment: Growth inhibition of human MCF7ADR cells; assay type: functional
[38] = test system: NCI-H522; experiment: Growth inhibition of human NCI-H522 cells; assay type: functional
[39] = test system: U-251; experiment: Growth inhibition of human U-251 cells; assay type: functional
[40] = test system: SK-OV-3; experiment: Growth inhibition of human SK-OV-3 cells by sulforhodamine B assay; assay type: functional
[41] = test system: M14; experiment: Growth inhibition of human M14 cells; assay type: functional
[42] = test system: U-937; experiment: Cytotoxicity against human U-937 cells assessed reduction in cell growth incubated for 48 hrs by MTT assay; assay type: functional, cell-based; settings: U-937, 48 h
[43] = test system: A-431; experiment: Anticancer activity against human A-431 cells assessed as reduction of cell viability incubated for 48 hrs by MTT assay; assay type: functional, cell-based; settings: A-431, 48 h
[44] = test system: SH-SY5Y; experiment: Cytotoxicity against human SH-SY5Y cells assessed as reduction in cell viability; assay type: functional, cell-based
[45] = test system: SK-N-DZ; experiment: Anticancer activity against human SK-N-DZ cells assessed as cell growth inhibition measured after 72 hrs by DAPI staining based analysis; assay type: functional
[46] = test system: SW-620; experiment: Growth inhibition of human SW620 cells; assay type: functional
[47] = test system: K562; experiment: Cytotoxicity against human K562 cells assessed reduction in cell growth incubated for 48 hrs by MTT assay; assay type: functional, cell-based; settings: K562, 48 h
[48] = test system: DU-145; experiment: Growth inhibition of human DU-145 cells by sulforhodamine B assay; assay type: functional
[49] = Antiproliferative activity against human LA-N-1 cells assessed as cell growth inhibition; assay type: functional, cell-based; settings: LAN1
[50] = test system: A498; experiment: Growth inhibition of human A498 cells by SRB method; assay type: functional

SMILES: O=c1c2ccc(O)cc2nc2c3[nH]c4ccccc4c3ccn12
- pIC50 [1]: 4.55
- pIC50 [2]: 4.76

SMILES: C[S+]([O-])c1ccc2[nH]c3c(c2c1)CCN1C(=O)c2ccccc2NC31 (stereo not given)
- GI50 [3]: 0.1 µM

SMILES: CO[C@@H]1c2c([nH]c3ccccc23)-c2nc3ccccc3c(=O)n2[C@H]1O
- pIC50 [4]: 5.11
- pIC50 [5]: 4.65

SMILES: O=c1c2cccc(O)c2nc2n1CCc1c-2[nH]c2ccccc12
- pIC50 [6]: 4.91
- pIC50 [7]: 4.61

SMILES: COc1cccc2c(=O)n3ccc4c5ccccc5[nH]c4c3nc12
- pEC50 [8]: 4.91
- pIC50 [9]: 4.57

SMILES: O=C1c2ccccc2N[C@H]2[C@H](O)C3C=C(F)C=CC3N12 (stereo not given in full)
- pIC50 [10]: 7.61

SMILES: CCO[C@@H]1c2c([nH]c3ccccc23)-c2nc3ccccc3c(=O)n2[C@H]1O
- pIC50 [11]: 5.08

SMILES: CN1c2ccccc2C(=O)N2CCc3c([nH]c4ccccc34)C21 (stereo not given)
- pIC50 [12]: 5.25
- pIC50 [13]: 5.34
- pIC50 [14]: 6.52
- pIC50 [15]: 6.33

SMILES: O=c1c2cc(Cl)ccc2nc2n1CCc1c-2[nH]c2ccccc12
- GI50 [16]: 1.5 µM

SMILES: O=c1c2ccccc2nc2n1Cc1cc3ccccc3nc1-2 [LUOTONIN A]
- pIC50 [17]: 5.52
- pIC50 [18]: 5.52
- pIC50 [19]: 4.29
- pIC50 [20]: 5.52
- pIC50 [21]: < 4.00

SMILES: O=c1c2ccccc2nc2n1CCc1c-2[nH]c2ccccc12 [RUTAECARPINE]
- GI50 [22]: 0.02 µM
- GI50 [23]: 25.8 µM
- GI50 [24]: 19.8 µM
- GI50 [25]: 8.41 µM
- pIC50 [26]: 4.78
- pIC50 [27]: 4.43
- GI50 [28]: 33.9 µM
- pIC50 [29]: 4.13
- GI50 [30]: 19.6 µM
- pIC50 [31]: 3.93
- GI50 [32]: 31.6 µM
- pIC50 [33]: 3.93
- GI50 [34]: 31.7 µM
- GI50 [35]: 14.1 µM
- pIC50 [36]: 4.72

SMILES: O=C1c2ccccc2-n2c1nc1ccccc1c2=O [TRYPTANTHRIN]
- GI50 [37]: 30 µM
- GI50 [38]: 15 µM
- GI50 [39]: 100 µM
- GI50 [40]: 2.5 µM
- GI50 [41]: 15 µM
- IC50 [42]: 3.1 µg/mL (≈ 12.5 µM)
- pIC50 [43]: 5.05
- pIC50 [44]: 4.66
- pIC50 [45]: 4.85
- GI50 [46]: 5 µM
- IC50 [47]: 6.3 µg/mL (≈ 25.4 µM)
- GI50 [48]: 0.4 µM
- pIC50 [49]: 4.80
- GI50 [50]: 0.95 µM
